According to ChEMBL document CHEMBL4425099, “Use of Osmotic Pumps to Establish the Pharmacokinetic-Pharmacodynamic Relationship and Define Desirable Human Performance Characteristics for Aggrecanase Inhibitors” (J Med Chem, 2016):
Values after ≈ are worked out from the molar mass of the structure shown. Active and inactive are the calls of the source. The calls are words filed in the database; no cut-off is given here.

Experiments:
[1] = Ratio of plasma concentration in Lewis rat model of MIA at 30 mg/kg, po bid administered post 3 days MIA induction measured after 4 hrs of last dosage on day 7 to IC50 for human ADAMTS5 in presence of Lewis rat plasma; type: ADME, organism-based; conditions: in vivo
[2] = Plasma concentration in Lewis rat model of MIA at 30 mg/kg, po bid administered post 3 days MIA induction measured after 4 hrs of last dosage on day 7; type: ADME, organism-based
[3] = Plasma concentration in Lewis rat model of MIA at 10 mg/kg, po bid administered post 3 days MIA induction measured after 4 hrs of last dosage on day 7; type: ADME, organism-based
[4] = Ratio of plasma concentration in Lewis rat model of MIA at 10 mg/kg, po bid administered post 3 days MIA induction measured after 4 hrs of last dosage on day 7 to IC50 for human ADAMTS5 in presence of Lewis rat plasma; type: ADME, organism-based; conditions: in vivo
[5] = Plasma concentration in Lewis rat model of MIA at 100 mg/kg, po bid administered post 3 days MIA induction measured after 4 hrs of last dosage on day 7; type: ADME, organism-based
Matrilysin = target: T1, Matrilysin (Homo sapiens, UniProt P09237); experiment: Inhibition of human MMP7 using Mca-PQGL-(3-[2,4-dinitrophenyl]-L-2,3-diaminopropionyl)-AR-OH as substrate measured after 2 to 4 hrs by fluorescence analysis
T1 sequence (P09237 whole entry): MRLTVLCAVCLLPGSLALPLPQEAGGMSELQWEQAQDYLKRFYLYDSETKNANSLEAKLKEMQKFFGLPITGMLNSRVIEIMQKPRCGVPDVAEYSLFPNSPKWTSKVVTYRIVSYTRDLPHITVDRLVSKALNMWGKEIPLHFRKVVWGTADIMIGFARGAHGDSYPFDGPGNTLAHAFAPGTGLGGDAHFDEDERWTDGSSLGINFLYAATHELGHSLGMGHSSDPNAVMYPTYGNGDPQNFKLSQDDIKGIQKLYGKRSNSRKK

Rattus norvegicus [6] = experiment: Reduction in ADAMTS-4/ADAMTS-5 mediated aggrecan cleavage products in Lewis rat model of MIA assessed as aggrecanase-cleaved fragments at 30 mg/kg, po bid administered post 3 days MIA induction measured after 4 hrs of last dosage on day 7 by NITEGE sandwich ELISA; type: functional
[7] = Ratio of plasma concentration in Lewis rat model of MIA at 6 mg/mL, […] post 3 days MIA induction to IC50 for human ADAMTS5 in presence of rat plasma; type: ADME, organism-based; conditions: in vivo, 72 h
[8] = Clearance in dog at 3 mg/kg, iv or 5 mg/kg, po; type: ADME, organism-based, Canis lupus familiaris; conditions: in vivo
[9] = Fraction unbound in human liver microsomes; type: ADME, Microsome
Rattus norvegicus [10] = experiment: Reduction in meniscal tear-induced osteoarthritis total joint score in Lewis rat surgical model at 30 and 100 mg/kg, po bid relative to vehicle control; type: functional, organism-based
[11] = Dissociation constant, acidic pKa of the compound; type: physicochemical
[12] = Fraction unbound in dog plasma; type: ADME, cell-free, Canis lupus familiaris
[13] = Ratio of plasma concentration in Lewis rat model of MIA at 18 mg/mL, […] post 3 days MIA induction to IC50 for human ADAMTS5 in presence of rat plasma; type: ADME, organism-based; conditions: in vivo, 72 h
[14] = Lipophilicity, log P of the compound; type: physicochemical; conditions: octanol/water
[15] = Volume of distribution at steady state in dog at 3 mg/kg, iv or 5 mg/kg, po; type: ADME, organism-based, Canis lupus familiaris; conditions: in vivo, read-out: Vdss
[16] = Fraction unbound in rat plasma; type: ADME, cell-free
[17] = Oral bioavailability in dog at 5 mg/kg; type: ADME, organism-based, Canis lupus familiaris; conditions: in vivo
[18] = Volume of distribution at steady state in cynomolgus monkey at 1 mg/kg, iv or 5 mg/kg, po; type: ADME, organism-based, Macaca fascicularis; conditions: in vivo, read-out: Vdss
Rattus norvegicus [19] = experiment: Reduction in ADAMTS-4/ADAMTS-5 mediated aggrecan cleavage products in Lewis rat model of MIA assessed as aggrecanase-cleaved fragments at 6 mg/mL administered through infusion pump post 3 days MIA induction measured after 4 hrs of last dosage on day 7 by NITEGE sandwich ELISA; type: functional
Rattus norvegicus [20] = experiment: Reduction in ADAMTS-4/ADAMTS-5 mediated aggrecan cleavage products in Lewis rat model of MIA assessed as aggrecanase-cleaved fragments at 60 mg/mL administered through infusion pump post 3 days MIA induction measured after 4 hrs of last dosage on day 7 by NITEGE sandwich ELISA; type: functional
[21] = Ratio of plasma concentration in Lewis rat model of MIA at 45 mg/kg, po qd administered post 3 days MIA induction measured after 4 hrs of last dosage on day 7 to IC50 for human ADAMTS5 in presence of Lewis rat plasma; type: ADME, organism-based; conditions: in vivo
[22] = Clearance in rat at 1 mg/kg, iv or 10 mg/kg, po; type: ADME, organism-based; conditions: in vivo
[23] = Fraction unbound in human plasma; type: ADME, cell-free
[24] = Half life in rat at 1 mg/kg, iv or 10 mg/kg, po; type: ADME, organism-based; conditions: in vivo
[25] = Clearance in cynomolgus monkey at 1 mg/kg, iv or 5 mg/kg, po; type: ADME, organism-based, Macaca fascicularis; conditions: in vivo
[26] = Half life in cynomolgus monkey at 1 mg/kg, iv or 5 mg/kg, po; type: ADME, organism-based, Macaca fascicularis; conditions: in vivo
[27] = Half life in dog at 3 mg/kg, iv or 5 mg/kg, po; type: ADME, organism-based, Canis lupus familiaris; conditions: in vivo
[28] = Volume of distribution at steady state in rat at 1 mg/kg, iv or 10 mg/kg, po; type: ADME, organism-based; conditions: in vivo, read-out: Vdss
[29] = Oral bioavailability in cynomolgus monkey at 5 mg/kg; type: ADME, organism-based, Macaca fascicularis; conditions: in vivo
[30] = Fraction unbound in cynomolgus monkey plasma; type: ADME, cell-free, Macaca fascicularis
[31] = Ratio of plasma concentration in Lewis rat model of MIA at […], […] administered through infusion pump post 3 days MIA induction to IC50 for human ADAMTS5 in presence of rat plasma; type: ADME, organism-based; conditions: in vivo, 72 h
[32] = Solubility of the compound at pH 2.2; type: physicochemical; conditions: buffer
[33] = Solubility of the compound at pH 7.5; type: physicochemical; conditions: buffer
Rattus norvegicus [34] = experiment: Reduction in ADAMTS-4/ADAMTS-5 mediated aggrecan cleavage products in Lewis rat model of MIA assessed as aggrecanase-cleaved fragments at 4.3 mg/mL, sc administered through infusion pump post 3 days MIA induction measured after 4 hrs of last dosage on day 7 by NITEGE sandwich ELISA; type: functional
[35] = Plasma concentration in Lewis rat model of MIA at 30 mg/mL, sc administered through infusion pump post 3 days MIA induction; type: ADME, organism-based
[36] = Plasma concentration in Lewis rat model of MIA at 1.44 mg/mL, sc administered through infusion pump post 3 days MIA induction; type: ADME, organism-based
[37] = Tmax in Lewis rat plasma at 30 mg/kg, po; type: ADME, organism-based
[38] = Ratio of plasma concentration in Lewis rat model of MIA at 10 mg/mL, sc administered through infusion pump post 3 days MIA induction to IC50 for human ADAMTS5 in presence of rat plasma; type: ADME, organism-based; conditions: in vivo, 72 h
Rattus norvegicus [39] = experiment: Reduction in ADAMTS-4/ADAMTS-5 mediated aggrecan cleavage products in Lewis rat model of MIA assessed as aggrecanase-cleaved fragments at 10 mg/mL, sc administered through infusion pump post 3 days MIA induction measured after 4 hrs of last dosage on day 7 by NITEGE sandwich ELISA; type: functional

Row | SMILES | Ratio [1] | concentration at 4 h [2] | concentration at 4 h [3] | Ratio [4] | concentration at 4 h [5] | IC50 (Matrilysin) | inhibition in vivo at 30 mg/kg (Rattus norvegicus [6]) | clearance [8] | fraction unbound [9] | pKa [11] | fraction unbound [12] | logP [14] | Vd [15] | fraction unbound [16] | bioavailability [17] | Vd [18] | clearance [22] | fraction unbound [23] | half-life [24] | clearance [25] | other results
1 | CCn1ccnc1[C@]1(CNC(=O)c2cc3cc(C(F)(F)F)ccc3o2)NC(=O)NC1=O | 54 | 3.6 µM | 0.93 µM | 14 | 11 µM | 100 µM | 35% | – | – | – | – | – | – | – | – | – | – | – | – | – | –
2 | O=C1NC(=O)[C@](CNC(=O)c2cc3cc(C(F)(F)F)ccc3o2)(C2CC2)N1 | – | – | – | – | – | 100 µM | – | 1.3 mL/min/kg | 0.557 | 8.52 | 0.215 | 2.29 | 0.92 L/kg | 0.206 | 74% | 0.8 L/kg | 13 mL/min/kg | 0.255 | 3.8 h | 1 mL/min/kg | Ratio [7]: 10; inhibition (Rattus norvegicus [10]): Active; Ratio [13]: 35; inhibition (INH) (Rattus norvegicus [19]): 44%; inhibition (INH) (Rattus norvegicus [20]): 59%; Ratio [21]: 10; half-life [26]: 12 h; half-life [27]: 9.1 h; Vd [28]: 3.6 L/kg; bioavailability [29]: 100%; fraction unbound [30]: 0.229; Ratio [31]: 3.2
3 | Cn1ccnc1[C@]1(CNC(=O)c2cc3cc(Cl)ccc3o2)NC(=O)NC1=O | – | – | – | – | – | 100 µM | – | – | – | – | – | – | – | – | – | – | – | – | – | – | –
4 | Cn1ccnc1[C@]1(CNC(=O)c2cc3cc(C(F)(F)F)ccc3o2)NC(=O)NC1=O | 46 | 1.6 µM | 0.51 µM | 15 | 11 µM | 100 µM | 53% | 4.8 mL/min/kg | 0.719 | 7.35 | 0.196 | 1.63 | 0.52 L/kg | 0.143 | 93% | 0.59 L/kg | 4.8 mL/min/kg | 0.245 | 1.9 h | 7.3 mL/min/kg | solubility [32]: 1750 µg/mL (≈ 4.15 mM); solubility [33]: 1740 µg/mL (≈ 4.13 mM); inhibition (INH) (Rattus norvegicus [34]): 57%; concentration at 72 h [35]: 3.6 µM; concentration at 72 h [36]: 0.13 µM; half-life [26]: 6.5 h; half-life [27]: 5.7 h; Vd [28]: 0.31 L/kg; Tmax [37]: 1 h; Ratio [38]: 31; inhibition (INH) (Rattus norvegicus [39]): 64%; bioavailability [29]: 76%; fraction unbound [30]: 0.248
5 | Cc1cnc([C@]2(CNC(=O)c3cc4cc(C(F)(F)F)ccc4o3)NC(=O)NC2=O)n1C | 76 | 4.8 µM | 1.4 µM | 22 | 31 µM | 100 µM | 45% | – | – | – | – | – | – | – | – | – | – | – | – | – | –
